In PubChem BioAssay AID1671209:

Target: Dual specificity tyrosine-phosphorylation-regulated kinase 4 (Homo sapiens) (UniProt Q9NR20)
Assay: inhibition of human DYRK4 phosphotransferase activity – biochemical, Z'-LYTE, FRET, protease-coupled, direct format, dose response (AID 1671209)
Conditions: recombinant DYRK4

Dual specificity tyrosine-phosphorylation-regulated kinase 4 (Homo sapiens), sequence (Q9NR20 whole entry, looked up): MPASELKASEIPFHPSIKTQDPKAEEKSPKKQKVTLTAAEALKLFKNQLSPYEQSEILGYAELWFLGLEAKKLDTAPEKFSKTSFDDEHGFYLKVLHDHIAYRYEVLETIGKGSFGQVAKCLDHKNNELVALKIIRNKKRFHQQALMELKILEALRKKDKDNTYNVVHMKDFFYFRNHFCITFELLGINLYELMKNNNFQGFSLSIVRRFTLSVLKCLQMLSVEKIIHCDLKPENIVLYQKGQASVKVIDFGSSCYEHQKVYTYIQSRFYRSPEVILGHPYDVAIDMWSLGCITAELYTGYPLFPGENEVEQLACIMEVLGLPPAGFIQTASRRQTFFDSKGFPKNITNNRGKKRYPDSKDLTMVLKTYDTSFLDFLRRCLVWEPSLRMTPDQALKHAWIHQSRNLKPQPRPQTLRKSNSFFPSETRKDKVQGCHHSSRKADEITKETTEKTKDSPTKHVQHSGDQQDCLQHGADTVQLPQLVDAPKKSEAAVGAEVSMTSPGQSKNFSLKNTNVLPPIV

Brc1c(Br)c(Br)c2n[nH]nc2c1Br
IC50: 12.9 µM
